Entries after “also recorded” stand apart in the source; their conditions may differ.
System: layer V pyramidal neurons
Experiment: Spike-timing-dependent LTP, whole-cell recordings from slices of treated adult mice
Format: in vivo
Experimental: All mice were treated with either WYE125132 or vehicle for a period of 2 weeks after which the animals were euthanized and thalamocortical slices were prepared. Briefly, animals were anesthetized, decapitated and the brain quickly placed into ice-cold dissection buffer containing (in mM): 75 sucrose, 87 NaCl, 2.5 KCl, 1.25 NaH2PO4, 0.5 CaCl2, 7 MgCl2 6H2O, 25 NaHCO3, 10 dextrose, bubbled with 95% O2/5% CO2 (pH 7.4). Slices (400 μm) were prepared with a vibratome (Leica, VT1200S), placed in 33-35° C. for artificial cerebrospinal fluid (ACSF, in mM: 124 NaCl, 2.5 KCl, 1.25 NaH2PO4, 2.5 CaCl2, 1.5 MgSO4 7H2O, 26 NaHCO3, and 10 dextrose) for <30 min; then returned to room temperature >1 hr before use. Slices were then transferred to the recording chamber and perfused (2.0-2.5 ml min-1) with oxygenated ACSF at 33-35° C. and given 30 min to stabilize. Somatic whole-cell recordings were made from layer 5 pyramidal cells in voltage and current clamp mode with a Multiclamp 700B amplifier (Molecular Devices). Selection was based on morphology and electrophysiological criteria. Patch pipettes (3-8MΩ) contained a current clamp solution. Data were filtered at 2 kHz, digitized at 10 kHz and analyzed with Clampfit. Cells were excluded from analysis if Ri or Rs changed by >25% over the course of the recording. Excitatory post-synaptic currents or potentials (EPSCs/Ps) were evoked by extracellular stimulation (0.01-1 ms, 1-10V) with a 4×1 array of electrodes placed in layer 4, and straddling the patched layer 5 neuron. Across mice we compared spontaneous and evoked inhibitory responses by clamping the membrane potential of the cell to sub-threshold levels. Furthermore, we compared inhibition generated by each stimulation electrode, to the corresponding amount of excitation when the cell was held at −80 mV. Lastly, we tested Spike-Timing Dependent Plasticity (STDP).
euthanized. For the electrophysiology and western blot rescue experiments, adult mice were gavaged for 14 consecutive days after which they were euthanized.
Whole cell recordings were made from layer V pyramidal cells of the temporal cortex. Focal extracellular stimulation was applied and excitatory and inhibitory currents were measured across various stimulation intensities to assess E:I balance. For plasticity experiments, extracellular stimulation was paired with postsynaptic action potentials (elicited by current injection via the recording electrode) less than 10 ms after the onset of the EPSP 60 times at 0.1 hz. Baseline strength was compared to synaptic strength 6-15 mins after spike pairing.
We investigated whether we could reverse the impairment in neuronal network activity and plasticity by targeting the overactivation of the mTOR pathway with WYE125132. […]

For `CNC(=O)Nc1ccc(-c2nc(N3CC4CCC(C3)O4)c3cnn(C4CCC5(CC4)OCCO5)c3n2)cc1` [WYE125132], the “LTP induction (in words)” value (Caspr2-/- / Cntnap2 mutant mice treated with WYE125132 for 2 weeks) was “robust LTP; also recorded: successfully induced LTP”, the “LTP induction (in words)” value (WT littermates treated with WYE125132 for 2 weeks) was “robust LTP” and the “synaptic modification after spike pairing (example recording)” value (WYE125132-treated Cntnap2-/- mouse, single example whole-cell recording) was 35.1 % increase. For the same molecule, the “synaptic modification after spike pairing (LTP summary)” value (WYE125132-treated Cntnap2-/- mutant mice, n=8, 6-15 min after pairing, error s.e.m.) was 45.4±16.4 % increase.

From patent publication US20160089377A1, “THERAPEUTIC TARGETING OF THE MTOR PATHWAY IN NEURODEVELOPMENTAL AND NEUROPSYCHIATRIC DISEASE” (THE TRUSTEES OF COLUMBIA UNIVERISTY IN THE CITY OF NEW YORK, priority 2013, published 2016)
